The nature of the data set: recombinant barcode read abundance after kanamycin selection (control-corrected) (log10(CPM+1)); higher = more efficient recombination; sequences stand for … in AGTGCAGAGAAAATCGGCCAGTTTTCTCTGCCTGCAGTCCGCATGCCGT…AGATTTATGCAGCGGACTGCCTTTCTCCCAAAGTGATAAACCGGACAGTATCATGGACCGGTTTTCCCGGTAATCCGTATTTGCAAGGTTGGTTTCACT; site = the 11-nt target. A digest of the protocol: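 Pooled oligos, each joining a target to an IS621 bridge RNA target-binding loop, were cloned and co-electroporated with a donor plasmid into E. coli. Selective plates carried chloramphenicol/ampicillin/kanamycin and 0.1 mM IPTG, while chloramphenicol/ampicillin LB agar served as control, with two replicates of each. Recombination efficiency rests on averaged, control-corrected counts per million of barcodes at recombinant junctions, shown as log10(CPM+1).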
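Further: IS621 recombinase and bridge RNA in Escherichia coli cells.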

“CGCCGTACTTGGGTTCTAACCTGTTGCCT (site CGCCGTACTAG)”: the “recombinant barcode read abundance (log10)” value was 0.405.

Turning to “CGCCGTACTTGGGTTCTAACCTGTTGCCT (site CGGCGTACTAG)”, the “recombinant barcode read abundance (log10)” value worked out at 0.349.

For “CGCCGTACTTGGGTTCTAACCTGTTGCCT (site CGTCGTACTAG)”, the “recombinant barcode read abundance (log10)” value came to 0.0659.

As for “CGCCTCACTTGGGTTCTAACCTGTTGCCT (site CGCCTCACTAG)”, the “recombinant barcode read abundance (log10)” value stood at 0.0456.

Consider “CGCCTCACTTGGGTTCTAACCTGTTGCCT (site CGCCTCCCTAG)”, for which the “recombinant barcode read abundance (log10)” value is 0.152.

Turning to “CGCCTCACTTGGGTTCTAACCTGTTGCCT (site CGCCTCGCTAG)”, the “recombinant barcode read abundance (log10)” value was determined as 0.166.

“CGCCTCACTTGGGTTCTAACCTGTTGCCT (site CGCCTCTCTAG)”: the “recombinant barcode read abundance (log10)” value came out at 0.0333.

With “CGCGAGTCTTGGGTTCTAACCTGTTGCTG (site CGCGAGTCTCA)”, the “recombinant barcode read abundance (log10)” value is 0.254.

Consider “CGCGAGTCTTGGGTTCTAACCTGTTGCTG (site TAATTTGCTAG)”, for which the “recombinant barcode read abundance (log10)” value is 0.142.

On to “CGCGCCACTTGGGTTCTAACCTGTTGCCT (site CGCGCCACTAG)”, for which the “recombinant barcode read abundance (log10)” value came out at 0.383.

Consider “CGCGCCACTTGGGTTCTAACCTGTTGCCT (site TAGCAGTCTGC)”, for which the “recombinant barcode read abundance (log10)” value came to 0.188.

Regarding “CGCGCCTCTTGGGTTCTAACCTGTTGCCG (site CGCGCCTCTCG)”, the “recombinant barcode read abundance (log10)” value is 0.0377.

“CGCGCCTCTTGGGTTCTAACCTGTTGCCG (site GGCCCCTCTCG)”: the “recombinant barcode read abundance (log10)” value was 0.362.

With “CGCGGGGCTTGGGTTCTAACCTGTTGCCT (site CGCGCGGCTAG)”, the “recombinant barcode read abundance (log10)” value came out at 0.392.

As for “CGCGGGGCTTGGGTTCTAACCTGTTGCCT (site CGCGGGGCTAG)”, the “recombinant barcode read abundance (log10)” value was determined as 0.662.

In the case of “CGCGGTCCTTGGGTTCTAACCTGTTGCCT (site CGCGATCCTAG)”, the “recombinant barcode read abundance (log10)” value turned out to be 0.305.

As to “CGCGGTCCTTGGGTTCTAACCTGTTGCCT (site CGCGCTCCTAG)”, the “recombinant barcode read abundance (log10)” value was 0.109.

Regarding “CGCGGTCCTTGGGTTCTAACCTGTTGCCT (site CGCGGTCCTAG)”, the “recombinant barcode read abundance (log10)” value worked out at 0.0165.

In the case of “CGCGGTCCTTGGGTTCTAACCTGTTGCCT (site CGCGTTCCTAG)”, the “recombinant barcode read abundance (log10)” value was found to be 0.084.

For “CGCTAGACTTGGGTTCTAACCTGTTGCCT (site CGCTAGACTAG)”, the “recombinant barcode read abundance (log10)” value is 0.13.

“CGCTAGACTTGGGTTCTAACCTGTTGCCT (site CGCTCGACTAG)”: the “recombinant barcode read abundance (log10)” value is 0.0159.

For the sequence “CGCTAGACTTGGGTTCTAACCTGTTGCCT (site CGCTGGACTAG)”, the “recombinant barcode read abundance (log10)” value worked out at 0.0628.

Regarding “CGCTAGACTTGGGTTCTAACCTGTTGCCT (site CGCTTGACTAG)”, the “recombinant barcode read abundance (log10)” value is 0.052.

With “CGCTAGTCTTGGGTTCTAACCTGTTGCCT (site CGCTAGTCTAG)”, the “recombinant barcode read abundance (log10)” value was 0.451.

Regarding “CGCTAGTCTTGGGTTCTAACCTGTTGCCT (site CGCTCGTCTAG)”, the “recombinant barcode read abundance (log10)” value worked out at 0.22.

As for “CGCTAGTCTTGGGTTCTAACCTGTTGCCT (site CGCTGGTCTAG)”, the “recombinant barcode read abundance (log10)” value was 0.285.

With “CGCTAGTCTTGGGTTCTAACCTGTTGCCT (site CGCTTGTCTAG)”, the “recombinant barcode read abundance (log10)” value was found to be 0.0462.

As to “CGCTCATCTTGGGTTCTAACCTGTTGCCT (site CGATCATCTAG)”, the “recombinant barcode read abundance (log10)” value was determined as 0.214.

Turning to “CGCTCATCTTGGGTTCTAACCTGTTGCCT (site CGCTCATCTAG)”, the “recombinant barcode read abundance (log10)” value came out at 0.0416.

“CGCTCATCTTGGGTTCTAACCTGTTGCCT (site CGGTCATCTAG)”: the “recombinant barcode read abundance (log10)” value came out at 0.154.

Consider “CGCTCATCTTGGGTTCTAACCTGTTGCCT (site CGTTCATCTAG)”, for which the “recombinant barcode read abundance (log10)” value was found to be 0.211.

For the sequence “CGCTCGACTTGGGTTCTAACCTGTTGCCT (site CGCTAGACTAG)”, the “recombinant barcode read abundance (log10)” value amounted to 0.596.

In the case of “CGCTCGACTTGGGTTCTAACCTGTTGCCT (site CGCTCGACTAG)”, the “recombinant barcode read abundance (log10)” value was 0.0944.

Regarding “CGCTCGACTTGGGTTCTAACCTGTTGCCT (site CGCTGGACTAG)”, the “recombinant barcode read abundance (log10)” value was found to be 0.188.

In the case of “CGCTCGACTTGGGTTCTAACCTGTTGCCT (site CGCTTGACTAG)”, the “recombinant barcode read abundance (log10)” value was 0.0207.

For “CGCTGGCCTTGGGTTCTAACCTGTTGCTT (site CGCTGACCTAA)”, the “recombinant barcode read abundance (log10)” value is 0.033.

Take “CGCTGGCCTTGGGTTCTAACCTGTTGCTT (site CGCTGCCCTAA)”: the “recombinant barcode read abundance (log10)” value turned out to be 0.112.

Take “CGCTGGCCTTGGGTTCTAACCTGTTGCTT (site CGCTGGCCTAA)”: the “recombinant barcode read abundance (log10)” value was found to be 0.162.

For the sequence “CGCTGGCCTTGGGTTCTAACCTGTTGCTT (site CGCTGTCCTAA)”, the “recombinant barcode read abundance (log10)” value was found to be 0.0658.

“CGCTTGACTTGGGTTCTAACCTGTTGCCT (site CGCTAGACTAG)”: the “recombinant barcode read abundance (log10)” value was 0.0413.

Consider “CGCTTGACTTGGGTTCTAACCTGTTGCCT (site CGCTCGACTAG)”, for which the “recombinant barcode read abundance (log10)” value stood at 0.164.

Regarding “CGCTTGACTTGGGTTCTAACCTGTTGCCT (site CGCTGGACTAG)”, the “recombinant barcode read abundance (log10)” value came to 0.131.

For “CGCTTGACTTGGGTTCTAACCTGTTGCCT (site CGCTTGACTAG)”, the “recombinant barcode read abundance (log10)” value came to 0.00854.

On to “CGCTTTACTTGGGTTCTAACCTGTTGCCG (site CGCTTTACTCG)”, for which the “recombinant barcode read abundance (log10)” value amounted to 0.104.

Consider “CGCTTTACTTGGGTTCTAACCTGTTGCCG (site TAGACATCTAC)”, for which the “recombinant barcode read abundance (log10)” value was 0.0706.

Take “CGGAAATCTTGGGTTCTAACCTGTTGCCT (site CGAAAATCTAG)”: the “recombinant barcode read abundance (log10)” value is 0.171.

“CGGAAATCTTGGGTTCTAACCTGTTGCCT (site CGCAAATCTAG)”: the “recombinant barcode read abundance (log10)” value came out at 0.0224.

With “CGGAAATCTTGGGTTCTAACCTGTTGCCT (site CGGAAATCTAG)”, the “recombinant barcode read abundance (log10)” value was 0.127.

In the case of “CGGAAATCTTGGGTTCTAACCTGTTGCCT (site CGTAAATCTAG)”, the “recombinant barcode read abundance (log10)” value was 0.0515.

For the sequence “CGGAACACTTGGGTTCTAACCTGTTGCGG (site CGGAACACTCC)”, the “recombinant barcode read abundance (log10)” value was found to be 2.84.

As to “CGGAACACTTGGGTTCTAACCTGTTGCGG (site CGGCACACTCC)”, the “recombinant barcode read abundance (log10)” value worked out at 0.755.

Turning to “CGGAACACTTGGGTTCTAACCTGTTGCGG (site CGGGACACTCC)”, the “recombinant barcode read abundance (log10)” value amounted to 0.908.

Regarding “CGGAACACTTGGGTTCTAACCTGTTGCGG (site CGGTACACTCC)”, the “recombinant barcode read abundance (log10)” value came to 1.08.

On to “CGGAATGCTTGGGTTCTAACCTGTTGCCT (site CGAAATGCTAG)”, for which the “recombinant barcode read abundance (log10)” value was 0.198.

Turning to “CGGAATGCTTGGGTTCTAACCTGTTGCCT (site CGCAATGCTAG)”, the “recombinant barcode read abundance (log10)” value amounted to 0.0762.

On to “CGGAATGCTTGGGTTCTAACCTGTTGCCT (site CGGAATGCTAG)”, for which the “recombinant barcode read abundance (log10)” value worked out at 1.38.

On to “CGGAATGCTTGGGTTCTAACCTGTTGCCT (site CGTAATGCTAG)”, for which the “recombinant barcode read abundance (log10)” value turned out to be 0.0616.

Regarding “CGGACGACTTGGGTTCTAACCTGTTGCCT (site CGGACGACTAG)”, the “recombinant barcode read abundance (log10)” value turned out to be 0.963.

In the case of “CGGACGACTTGGGTTCTAACCTGTTGCCT (site CGGACGCCTAG)”, the “recombinant barcode read abundance (log10)” value is 0.0677.

Turning to “CGGACGACTTGGGTTCTAACCTGTTGCCT (site CGGACGGCTAG)”, the “recombinant barcode read abundance (log10)” value came to 0.0816.

In the case of “CGGACGACTTGGGTTCTAACCTGTTGCCT (site CGGACGTCTAG)”, the “recombinant barcode read abundance (log10)” value came to 0.111.

“CGGAGCCCTTGGGTTCTAACCTGTTGCGG (site AGGAGCCCTTC)”: the “recombinant barcode read abundance (log10)” value amounted to 0.0728.

For the sequence “CGGAGCCCTTGGGTTCTAACCTGTTGCGG (site CGGAGCCCTCC)”, the “recombinant barcode read abundance (log10)” value came to 1.82.

Take “CGGATCGCTTGGGTTCTAACCTGTTGCCT (site CGGATAGCTAG)”: the “recombinant barcode read abundance (log10)” value was 0.079.

Take “CGGATCGCTTGGGTTCTAACCTGTTGCCT (site CGGATCGCTAG)”: the “recombinant barcode read abundance (log10)” value was found to be 1.76.

Regarding “CGGATCGCTTGGGTTCTAACCTGTTGCCT (site CGGATGGCTAG)”, the “recombinant barcode read abundance (log10)” value stood at 0.153.

Regarding “CGGATCGCTTGGGTTCTAACCTGTTGCCT (site CGGATTGCTAG)”, the “recombinant barcode read abundance (log10)” value was 0.271.

As for “CGGCATACTTGGGTTCTAACCTGTTGCCT (site CAGCATACTAG)”, the “recombinant barcode read abundance (log10)” value was 0.0864.

For the sequence “CGGCATACTTGGGTTCTAACCTGTTGCCT (site CCGCATACTAG)”, the “recombinant barcode read abundance (log10)” value turned out to be 0.0245.

For “CGGCATACTTGGGTTCTAACCTGTTGCCT (site CGGCATACTAG)”, the “recombinant barcode read abundance (log10)” value worked out at 0.66.

For “CGGCATACTTGGGTTCTAACCTGTTGCCT (site CTGCATACTAG)”, the “recombinant barcode read abundance (log10)” value worked out at 0.

Regarding “CGGCCACCTTGGGTTCTAACCTGTTGCCT (site CGGCCACCTAG)”, the “recombinant barcode read abundance (log10)” value turned out to be 2.02.

For the sequence “CGGCCACCTTGGGTTCTAACCTGTTGCCT (site TGGCCACCTAG)”, the “recombinant barcode read abundance (log10)” value is 0.0718.

Turning to “CGGCCTACTTGGGTTCTAACCTGTTGCTT (site CGGCCTACTAA)”, the “recombinant barcode read abundance (log10)” value stood at 0.659.

As to “CGGCCTACTTGGGTTCTAACCTGTTGCTT (site CGGCTTCCTAA)”, the “recombinant barcode read abundance (log10)” value is 0.137.

“CGGCGTCCTTGGGTTCTAACCTGTTGCCG (site CGGCGTCCTAG)”: the “recombinant barcode read abundance (log10)” value was found to be 0.498.

As for “CGGCGTCCTTGGGTTCTAACCTGTTGCCG (site CGGCGTCCTCG)”, the “recombinant barcode read abundance (log10)” value is 0.197.

(Values after the supplement of paper PMC11208160.)
